From PMC5988656, “Phase I studies of AZD1208, a proviral integration Moloney virus kinase inhibitor in solid and haematological cancers” (British Journal of Cancer, 2018)

Test system: patients with recurrent or refractory AML
Assay: AML dose-escalation study: safety and tolerability (AEs, DLTs)
Type: in vivo, human
Description: Conducted at three centres in the USA and one in Canada. Dose escalation followed a conventional 3 + 3 design. […] In the first cohort, dosing between the first and subsequent patients was staggered with a 7-day interval. Dose-escalation decisions were based on the safety and tolerability data from ≥3 evaluable patients (or six if one of the first three patients experienced a dose-limiting toxicity [DLT]).
AZD1208 could be escalated by up to 100% in subsequent cohorts until one DLT was observed, after which succeeding doses were escalated by up to 50%.
In the case of a DLT, the cohort was expanded to six patients. If a DLT occurred in ≥2 patients within a cohort, the dose was determined to be a non-tolerated dose (NTD) and dose escalation was stopped.
Grade 3 or 4 toxicities not attributable to the disease or disease-related processes under investigation, and occurring before the end of Cycle 1, were considered DLTs.
The NTD was identified as the dose at which ≥2 DLTs occurred in a given cohort.

SMILES: N[C@@H]1CCCN(c2c(/C=C3\SC(=O)NC3=O)cccc2-c2ccccc2)C1 [AZD1208]
- Hyperglycaemia (all-grade AE) (700 mg, n = 7): 1 (14.3) n (%)
- Hypocalcaemia (all-grade AE) (700 mg, n = 7): 3 (42.9) n (%)
- Hypokalaemia (all-grade AE) (700 mg, n = 7): 2 (28.6) n (%)
- Hypomagnesaemia (all-grade AE) (700 mg, n = 7): 2 (28.6) n (%)
- Hypophosphataemia (all-grade AE) (700 mg, n = 7): 1 (14.3) n (%)
- Hypotension (all-grade AE) (700 mg, n = 7): 3 (42.9) n (%)
- Maculopapular rash (all-grade AE) (700 mg, n = 7): 2 (28.6) n (%)
- Nausea (all-grade AE) (700 mg, n = 7): 5 (71.4) n (%)
- Oedema peripheral (all-grade AE) (700 mg, n = 7): 2 (28.6) n (%)
- Patients with any AE (all-grade AE) (700 mg, n = 7): 7 (100.0) n (%)
- Pneumonia (all-grade AE) (700 mg, n = 7): 0 n (%)
- Pyrexia (all-grade AE) (700 mg, n = 7): 0 n (%)
- Rash (all-grade AE) (700 mg, n = 7): 1 (14.3) n (%)
- Renal failure acute (all-grade AE) (700 mg, n = 7): 1 (14.3) n (%)
- Stomatitis (all-grade AE) (700 mg, n = 7): 0 n (%)
- Vision blurred (all-grade AE) (700 mg, n = 7): 0 n (%)
- Vomiting (all-grade AE) (700 mg, n = 7): 2 (28.6) n (%)
- Patients in whom AZD1208 was discontinued as a result of SAEs and AEs (900 mg (acute coronary syndrome, rash)): 2 n
- Tolerability (900 mg QD): not tolerated
- Abdominal pain (all-grade AE) (900 mg, n = 9): 1 (11.1) n (%)
- Asthenia (all-grade AE) (900 mg, n = 9): 2 (22.2) n (%)
- Chills (all-grade AE) (900 mg, n = 9): 2 (22.2) n (%)
- Cough (all-grade AE) (900 mg, n = 9): 2 (22.2) n (%)
- DLT detail, action taken (900 mg, n = 9): Rash, drug permanently discontinued; maculopapular rash, drug permanently discontinued
- Decreased appetite (all-grade AE) (900 mg, n = 9): 1 (11.1) n (%)
- Dehydration (all-grade AE) (900 mg, n = 9): 4 (44.4) n (%)
- Diarrhoea (all-grade AE) (900 mg, n = 9): 4 (44.4) n (%)
- Dyspnoea (all-grade AE) (900 mg, n = 9): 2 (22.2) n (%)
- Fatigue (all-grade AE) (900 mg, n = 9): 2 (22.2) n (%)
- Febrile neutropenia (all-grade AE) (900 mg, n = 9): 3 (33.3) n (%)
- Headache (all-grade AE) (900 mg, n = 9): 0 n (%)
- Hyperglycaemia (all-grade AE) (900 mg, n = 9): 2 (22.2) n (%)
- Hypocalcaemia (all-grade AE) (900 mg, n = 9): 1 (11.1) n (%)
- Hypokalaemia (all-grade AE) (900 mg, n = 9): 2 (22.2) n (%)
- Hypomagnesaemia (all-grade AE) (900 mg, n = 9): 1 (11.1) n (%)
- Hypophosphataemia (all-grade AE) (900 mg, n = 9): 2 (22.2) n (%)
- Hypotension (all-grade AE) (900 mg, n = 9): 2 (22.2) n (%)
- Maculopapular rash (all-grade AE) (900 mg, n = 9): 1 (11.1) n (%)
- Nausea (all-grade AE) (900 mg, n = 9): 2 (22.2) n (%)
- Oedema peripheral (all-grade AE) (900 mg, n = 9): 2 (22.2) n (%)
- Patients with any AE (all-grade AE) (900 mg, n = 9): 9 (100.0) n (%)
- Pneumonia (all-grade AE) (900 mg, n = 9): 0 n (%)
- Pyrexia (all-grade AE) (900 mg, n = 9): 3 (33.3) n (%)
- Rash (all-grade AE) (900 mg, n = 9): 2 (22.2) n (%)
- Renal failure acute (all-grade AE) (900 mg, n = 9): 0 n (%)
- Stomatitis (all-grade AE) (900 mg, n = 9): 0 n (%)
- Vision blurred (all-grade AE) (900 mg, n = 9): 0 n (%)
- Vomiting (all-grade AE) (900 mg, n = 9): 1 (11.1) n (%)
- Abdominal pain (all-grade AE) (Total N = 32): 6 (18.8) n (%)
- Asthenia (all-grade AE) (Total N = 32): 5 (15.6) n (%)
- Chills (all-grade AE) (Total N = 32): 4 (12.5) n (%)
- Cough (all-grade AE) (Total N = 32): 8 (25.0) n (%)
- Decreased appetite (all-grade AE) (Total N = 32): 4 (12.5) n (%)
- Dehydration (all-grade AE) (Total N = 32): 4 (12.5) n (%)
- Diarrhoea (all-grade AE) (Total N = 32): 14 (43.8) n (%)
- Dyspnoea (all-grade AE) (Total N = 32): 7 (21.9) n (%)
- Fatigue (all-grade AE) (Total N = 32): 10 (31.3) n (%)
- Febrile neutropenia (all-grade AE) (Total N = 32): 9 (28.1) n (%)
- Headache (all-grade AE) (Total N = 32): 4 (12.5) n (%)
- Hyperglycaemia (all-grade AE) (Total N = 32): 5 (15.6) n (%)
- Hypocalcaemia (all-grade AE) (Total N = 32): 7 (21.9) n (%)
- Hypokalaemia (all-grade AE) (Total N = 32): 7 (21.9) n (%)
- Hypomagnesaemia (all-grade AE) (Total N = 32): 7 (21.9) n (%)
- Hypophosphataemia (all-grade AE) (Total N = 32): 6 (18.8) n (%)
- Hypotension (all-grade AE) (Total N = 32): 10 (31.3) n (%)
- Maculopapular rash (all-grade AE) (Total N = 32): 4 (12.5) n (%)
- Nausea (all-grade AE) (Total N = 32): 15 (46.9) n (%)
- Oedema peripheral (all-grade AE) (Total N = 32): 9 (28.1) n (%)
- Patients with any AE (all-grade AE) (Total N = 32): 31 (96.9) n (%)
- Pneumonia (all-grade AE) (Total N = 32): 6 (18.8) n (%)
- Pyrexia (all-grade AE) (Total N = 32): 4 (12.5) n (%)
- Rash (all-grade AE) (Total N = 32): 4 (12.5) n (%)
- Renal failure acute (all-grade AE) (Total N = 32): 4 (12.5) n (%)
- Stomatitis (all-grade AE) (Total N = 32): 5 (15.6) n (%)
- Vision blurred (all-grade AE) (Total N = 32): 4 (12.5) n (%)
- Vomiting (all-grade AE) (Total N = 32): 10 (31.3) n (%)
- Deaths during the study (all attributed to disease progression): nine
- ECG abnormalities (all doses): No clinically significant ECG abnormalities
- Patients with DLTs (all doses): five
- AEs judged possibly related to AZD1208, patients (all doses, 32 patients): 68.8%
- AZD1208 discontinued as a result of SAEs and AEs, patients (all doses, 32 patients): 25%
- Diarrhoea possibly related to AZD1208, patients (all doses, 32 patients): 21.9%
- Diarrhoea, patients (all doses, 32 patients): 43.8%
- Fatigue possibly related to AZD1208, patients (all doses, 32 patients): 18.8%
- Gastrointestinal disorders AEs, patients (all doses, 32 patients): 87.5%
- Grade ≥3 febrile neutropenia, patients (all doses, 32 patients): 28.1%
- Grade ≥3 hypotension, patients (all doses, 32 patients): 18.8%
- Grade ≥3 pneumonia, patients (all doses, 32 patients): 15.6%
- Nausea possibly related to AZD1208, patients (all doses, 32 patients): 37.5%
- Nausea, patients (all doses, 32 patients): 46.9%
- Patients who experienced an AE (all doses, 32 patients): 96.9%
- Patients with a grade ≥3 AE (all doses, 32 patients): 24 n
- SAE abdominal pain, patients (all doses, 32 patients): 6.3%
- SAE back pain, patients (all doses, 32 patients): 6.3%
- SAE febrile neutropenia, patients (all doses, 32 patients): 25.0%
- SAE hypotension, patients (all doses, 32 patients): 6.3%
- SAE maculopapular rash, patients (all doses, 32 patients): 6.3%
- Serious AEs (SAEs), patients (all doses, 32 patients): 71.9%
- Treatment-related SAEs, patients (all doses, 32 patients): 15.6%
- Vomiting possibly related to AZD1208, patients (all doses, 32 patients): 18.8%
- Time of DLT occurrence after the start of treatment (five patients with DLTs): 1 to 10 days
- Doses generally tolerated (heavily pretreated AML, QD oral): up to 700 mg
